Source: ChEMBL document CHEMBL1128197 (J Med Chem, 1995)

Target: Translocator protein (Rattus norvegicus, UniProt P16257)
Test: Binding affinity constant for peripheral (mitochondrial) Benzodiazepine receptor

Chain of Translocator protein (P16257 whole entry, looked up): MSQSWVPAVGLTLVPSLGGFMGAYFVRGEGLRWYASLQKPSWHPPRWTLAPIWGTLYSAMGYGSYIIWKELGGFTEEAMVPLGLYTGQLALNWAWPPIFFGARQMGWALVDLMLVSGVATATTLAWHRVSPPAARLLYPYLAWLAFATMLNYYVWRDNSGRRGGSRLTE

SMILES | Ki [µM] | Kd [µM]
COC1=C(c2ccccc2)Sc2ccccc2-n2cccc21 | 7 | –
CN(C)C(=O)OC1=C(c2ccccc2)Sc2ccccc2-n2cccc21 | 0.009 | –
COc1ccc(C2=C(OC(=O)c3cc(OC)c(OC)c(OC)c3)c3cccn3-c3cc(Cl)ccc3S2)cc1 | > 0.01 | –
CC(=O)OC1=C(c2ccc(Cl)cc2)Sc2ccccc2-n2cccc21 | 0.03 | –
COc1ccc(C2=C(OS(C)(=O)=O)c3cccn3-c3ccccc3S2)cc1 | 0.095 | –
COc1ccc(C2=C(OC(=O)c3cccnc3)c3cccn3-c3ccccc3S2)cc1 | > 0.01 | –
CN1CCN=C(c2ccccc2)c2cc(Cl)ccc21 [MEDAZEPAM] | – | > 0.01
C1=C(c2ccccc2)Sc2ccccc2-n2cccc21 | 3.15 | –
